One test relates to Str. pneumoniae A-9585. Nature of the test: MIC, tube dilution, Streptococcus pneumoniae A9585. It counts as cell-based. The settings on record: Streptococcus pneumoniae, A9585, Str. pneumoniae A9585; overnight 37° C., Nutrient Broth; read-out: Minimum Inhibitory Concentration (M.I.C.). The source says: (§1) Representative compounds of the present invention were subjected to in vitro antibiotic screening against a variety of microorganisms.

For a further test, the system named is Str. pyogenes A-9604. Nature of the test: MIC, tube dilution, Streptococcus pyogenes A9604. It counts as cell-based. The settings on record: Streptococcus pyogenes, A9604, Str. pyogenes A9604; overnight 37° C., Nutrient Broth; read-out: Minimum Inhibitory Concentration (M.I.C.).
Description: as §1

The test system of another test is Staph. aureus A-9537. Nature of the test: MIC, tube dilution, Staphylococcus aureus A9537. It counts as cell-based. As to conditions: Staphylococcus aureus, A9537, Staph. aureus A9537; overnight 37° C., Nutrient Broth; read-out: Minimum Inhibitory Concentration (M.I.C.).
Description: as §1

Test [1] concerns Staph. aureus A-9537 and 50% serum. Nature of the test: MIC, tube dilution, Staph. aureus A9537 + 50% serum. The format is cell-based, Staphylococcus aureus. As to conditions: Staphylococcus aureus, overnight 37° C., read-out: Minimum Inhibitory Concentration (M.I.C.).
Description: as §1

Test [2] has as its system Staph. aureus (Pen-Res) A-9606. The test is described as follows: MIC, tube dilution, Staphylococcus aureus A9606 (Pen-Res). The settings on record: Staphylococcus aureus, overnight 37° C. The format is cell-based.
Description: as §1

The test system of test [3] is Staph. aureus (Meth-Res) A-15097. Nature of the test: MIC, tube dilution, Staphylococcus aureus A15097 (Meth-Res). The format is cell-based. As to conditions: Staphylococcus aureus, overnight 37° C.
Description: as §1

The subject of another test is Str. faecalis A-20688. Nature of the test: MIC, tube dilution, Streptococcus faecalis A20688. As to conditions: Enterococcus faecalis, A20688, Str. faecalis A20688; overnight 37° C.; read-out: Minimum Inhibitory Concentration (M.I.C.). It counts as cell-based.
Description: as §1

A further test deals with E. coli A-15119. Nature of the test: MIC, tube dilution, Escherichia coli A15119. It counts as cell-based. As to conditions: Escherichia coli, A15119, E. coli A15119; overnight 37° C.; read-out: Minimum Inhibitory Concentration (M.I.C.).
Description: as §1

The next test has as its system E. coli A-20341-1. Nature of the test: MIC, tube dilution, Escherichia coli A20341-1. It counts as cell-based.
Description: as §1

The next test deals with K. pneumoniae A-15130. Nature of the test: MIC, tube dilution, Klebsiella pneumoniae A15130. It counts as cell-based. The settings on record: Klebsiella pneumoniae, A15130, K. pneumoniae A15130; overnight 37° C.; read-out: Minimum Inhibitory Concentration (M.I.C.).
Description: as §1

In test [4] the test system is Klebsiella species A20468. Nature of the test: MIC, tube dilution, Klebsiella species A20468. It counts as cell-based. The settings on record: Klebsiella species (K. pneumoniae) A20468; overnight 37° C.; read-out: Minimum Inhibitory Concentration (M.I.C.).
Description: as §1

Another test has as its system Pr. mirabilis A-9900. The test is described as follows: MIC, tube dilution, Proteus mirabilis A9900. The format is cell-based. The settings on record: Proteus mirabilis, A9900, Proteus mirabilis A9900; overnight 37° C.; read-out: Minimum Inhibitory Concentration (M.I.C.).
Description: as §1

For the next test, the system named is Pr. vulgaris A-9716. The test is described as follows: MIC, tube dilution, Proteus vulgaris / Proteus mirabilis A9716. The format is cell-based, Proteus vulgaris (name changed to Proteus mirabilis). The settings on record: Proteus vulgaris, overnight 37° C.
Description: as §1

In another test the test system is Pr. morganii A-15153. Nature of the test: MIC, tube dilution, Proteus morganii A15153. The format is cell-based. The settings on record: Morganella morganii, A15153, Proteus morganii A15153; overnight 37° C.; read-out: Minimum Inhibitory Concentration (M.I.C.).
Description: as §1

For a further test, the system named is Ser. marcescens A-20019. Nature of the test: MIC, tube dilution, Serratia marcescens A20019. It counts as cell-based. As to conditions: Serratia marcescens, A20019, Serratia marcescens A20019; overnight 37° C.; read-out: Minimum Inhibitory Concentration (M.I.C.).
Description: as §1

The test system of another test is Ent. cloacae A-9659. The test is described as follows: MIC, tube dilution, Enterobacter cloacae A9659. It counts as cell-based. As to conditions: Enterobacter cloacae, A9659, Enterobacter cloacae A9659; overnight 37° C.; read-out: Minimum Inhibitory Concentration (M.I.C.).
Description: as §1

Another test has as its system Ent. cloacae A-9656. Nature of the test: MIC, tube dilution, Enterobacter cloacae A9656. It counts as cell-based. As to conditions: overnight 37° C., read-out: Minimum Inhibitory Concentration (M.I.C.).
Description: as §1

Another test has as its system Ps. aeruginosa A-9843A. Nature of the test: MIC, tube dilution, Pseudomonas aeruginosa A9843A. The format is cell-based. As to conditions: Pseudomonas aeruginosa, A9843A, read-out: Minimum Inhibitory Concentration (M.I.C.), Pseudomonas aeruginosa A9843A; overnight 37° C.
Description: as §1

In the next test the test system is Ps. aeruginosa A-21213. The test is described as follows: MIC, tube dilution, Pseudomonas aeruginosa A21213. The settings on record: overnight 37° C., read-out: Minimum Inhibitory Concentration (M.I.C.). It counts as cell-based.
Description: as §1

The next test concerns Proteus rettgeri A21203. Nature of the test: MIC, tube dilution, Proteus rettgeri A21203. It counts as cell-based. The settings on record: Providencia rettgeri, overnight 37° C., read-out: Minimum Inhibitory Concentration (M.I.C.).
Description: as §1

[5] abbreviates: A9716, Proteus vulgaris / Proteus mirabilis A9716, read-out: Minimum Inhibitory Concentration (M.I.C.).
[6] abbreviates: read-out: Minimum Inhibitory Concentration (M.I.C.), Staph. aureus A9606 (Pen-Res).
[7] abbreviates: read-out: Minimum Inhibitory Concentration (M.I.C.), Staph. aureus A15097 (Meth-Res).
[8] abbreviates: Escherichia coli, A203411; E. coli A20341-1; overnight 37° C.; read-out: Minimum Inhibitory Concentration (M.I.C.).

Molecules are shown by their SMILES. ≈ marks a conversion by molar mass, not a printed value. Read-outs that look alike come from different tables or passages of the source. Where only a bound is given, the exact number is not on record here.

Drawing on patent publication US4272437A, “Antibacterial agents, and 4-thio azetidinone intermediates” (priority 1979, dated 1981), this text covers MIC for three compounds.

On to `O=C(O)C1=CSC2CC(=O)N12` (stereo not drawn) [Example 19, Penem-3-carboxylic Acid], for which the MIC was 0.5 µg/mL (≈ 2.92 µM) in the test on Str. pneumoniae A-9585; 2 µg/mL (≈ 11.7 µM) in the test on Str. pyogenes A-9604; 4 µg/mL (≈ 23.4 µM) with Staph. aureus A-9537; 63 µg/mL in test [1]; 8 µg/mL (≈ 46.7 µM) in test [2] (Staph. aureus A9606 (Pen-Res), read-out: Minimum Inhibitory Concentration (M.I.C.)); 63 µg/mL (≈ 368 µM) in test [3] (Staph. aureus A15097 (Meth-Res), read-out: Minimum Inhibitory Concentration (M.I.C.)). Also, the MIC in the test with Str. faecalis A-20688 is 125 µg/mL (≈ 730 µM); in the test on E. coli A-15119, 8 µg/mL (≈ 46.7 µM); with E. coli A-20341-1 (Escherichia coli, A203411, E. coli A20341-1; overnight 37° C.; read-out: Minimum Inhibitory Concentration (M.I.C.)), 16 µg/mL (≈ 93.5 µM); in the test on K. pneumoniae A-15130, 16 µg/mL (≈ 93.5 µM); in test [4], over 125 µg/mL; in the test on Pr. mirabilis A-9900 it was 16 µg/mL (≈ 93.5 µM). Further, the MIC in the test with Pr. vulgaris A-9716 (setting [5]) came out at 16 µg/mL (≈ 93.5 µM); in the test on Pr. morganii A-15153, 16 µg/mL (≈ 93.5 µM); with Ser. marcescens A-20019, 16 µg/mL (≈ 93.5 µM); in the test on Ent. cloacae A-9659, 16 µg/mL (≈ 93.5 µM); with Ent. cloacae A-9656 (Enterobacter cloacae, A9656, Enterobacter cloacae A9656) it was 16 µg/mL (≈ 93.5 µM); in the test with Ps. aeruginosa A-9843A, 63 µg/mL (≈ 368 µM). Besides, the MIC with Ps. aeruginosa A-21213 (Pseudomonas aeruginosa, A21213, Pseudomonas aeruginosa A21213) is 125 µg/mL (≈ 730 µM); in the test with Proteus rettgeri A21203 (A21203, Proteus rettgeri A21203) it was 16 µg/mL (≈ 93.5 µM).

Consider `CON=C(C)CC1=C(C(=O)O)N2C(=O)CC2S1` (stereo not drawn) [Example 44, Sodium 2-(Acetonylmethyl oxime)-penem-3-carboxylate], for which the MIC is 2 µg/mL with Str. pneumoniae A-9585; 16 µg/mL with Str. pyogenes A-9604; 32 µg/mL with Staph. aureus A-9537; over 63 µg/mL in test [1]; over 125 µg/mL in [2] (setting [6]); over 125 µg/mL in test [3] (setting [7]). Moreover, the MIC was 125 µg/mL in the test on Str. faecalis A-20688; 63 µg/mL with E. coli A-15119; over 125 µg/mL in the test with E. coli A-20341-1 (setting [8]); over 125 µg/mL in the test with K. pneumoniae A-15130; over 125 µg/mL in test [4]; 63 µg/mL in the test on Pr. mirabilis A-9900. For the same compound, the MIC was 63 µg/mL in the test with Pr. vulgaris A-9716 (setting [5]); 125 µg/mL in the test with Pr. morganii A-15153; over 125 µg/mL in the test with Ser. marcescens A-20019; over 125 µg/mL with Ent. cloacae A-9659; over 125 µg/mL in the test on Ent. cloacae A-9656 (Enterobacter cloacae A9656); 125 µg/mL in the test with Ps. aeruginosa A-9843A. Besides, the MIC with Ps. aeruginosa A-21213 (Pseudomonas aeruginosa A21213) and with Proteus rettgeri A21203 (Proteus rettgeri A21203) was 125 µg/mL each time.

In the case of `Cc1cc(CC2=C(C(=O)O)N3C(=O)CC3S2)on1` (stereo not drawn) [Example 20], the MIC was 8 µg/mL (≈ 30 µM) in the test on Str. pneumoniae A-9585; 63 µg/mL (≈ 237 µM) in the test on Str. pyogenes A-9604; over 125 µg/mL with Staph. aureus A-9537; over 63 µg/mL in test [1]; over 125 µg/mL in test [2] (setting [6]); over 125 µg/mL in test [3] (setting [7]). In addition, the MIC (in the test on Str. faecalis A-20688; in the test on E. coli A-15119; in the test with E. coli A-20341-1 (setting [8]); with K. pneumoniae A-15130; in test [4]; in the test with Pr. mirabilis A-9900) was over 125 µg/mL throughout. The MIC is 125 µg/mL (≈ 469 µM) in the test on Pr. vulgaris A-9716 (A9716, read-out: Minimum Inhibitory Concentration (M.I.C.), Proteus vulgaris / Proteus mirabilis A9716); 125 µg/mL (≈ 469 µM) in the test on Pr. morganii A-15153; over 125 µg/mL in the test on Ser. marcescens A-20019; over 125 µg/mL in the test with Ent. cloacae A-9659; over 125 µg/mL with Ent. cloacae A-9656 (Enterobacter cloacae A9656); 125 µg/mL (≈ 469 µM) with Ps. aeruginosa A-9843A. Also, the MIC with Ps. aeruginosa A-21213 (Pseudomonas aeruginosa A21213) and in the test on Proteus rettgeri A21203 (Proteus rettgeri A21203) was 125 µg/mL (≈ 469 µM) each time.
